Source: US7863040B2, “Ready-to-use whole blood collection vessel” (Roche Diagnostics Operations, Inc., priority 2006, dated 2011)

Key:
erythrocytes [1] = assay: Visual evaluation of hemolysis (time until a clear solution is observed); format: cell-based
Method: Whether the conditions for differential hemolysis are appropriate can be easily and preferably determined by using the following standardized procedure. A whole blood sample with a hematocrit of 40 is diluted 1:10 and then mixed 1:1 with the candidate hemolysis reagent. The efficacy of a reagent for bringing about differential hemolysis is seen visually. Upon lysis of the erythrocytes the mixture becomes clear. If precipitation of sample constituents occurs the sample becomes turbid or viscous or both.
As indicated above, the conditions used in a method of differential hemolysis according to the present invention can easily be assessed visually. If a whole blood sample is incubated with an appropriate candidate reagent for differential hemolysis the minimal concentration required to hemolyze red blood cells can be recognized as the concentration rendering the turbid blood sample transparent or clear. The highest possible concentration is the one still leading to a transparent and non-viscous sample.
(§1) Solution A: Fresh EDTA-stabilized whole blood is diluted with 0.15 molar sodium chloride solution in the ratio 1:10 (50 μL EDTA-blood plus 450 μL sodium chloride solution).
In the case of the addition of a second anion, e.g., iodine (1-Butyl-3-methylpyridiniumchloride/KJ) the stated salt is added in an equimolar amount.
Hemolysate is prepared by mixing solution A and B in equal volumes, e.g., 500 μL solution A plus 500 μL solution B.
After mixing the hemolysate is inspected visually for turbidometry and clearness immediately after mixing, after 1 minute, 2, 5, 6, 7, 20 and 40 minutes. The time until a clear solution is observed is recorded.

[2] = test system: EDTA-anticoagulated whole blood; assay: Processing of EDTA-anticoagulated whole blood in a tube with reagent for differential hemolysis (time to optically clear lysate); format: cell-based
Method: This reagent for differential hemolysis thus has a concentration of about 25% BMPBF4. […] 250 microliter of EDTA-anticoagulated whole blood is pipetted into a vial containing 5 milliliter of this lysis reagent. For hemolysis the content of the tube is gently mixed by shaking. An optically clear lysate is obtained within five minutes. The lysate is stored at 4° C. Stability of the lysate is inspected after 1, 4 and 7 days by visual inspection. […] This reagent for differential hemolysis thus has a concentration of about 2% Me-octPCl. 250 microliter of EDTA-anticoagulated whole blood is pipetted into a vial containing 5 milliliter of this lysis reagent. For hemolysis the content of the tube is gently mixed by shaking. An optically clear lysate is obtained within five minutes. The lysate is stored at 4° C. Stability of the lysate is inspected after 1, 4 and 7 days by visual inspection. […] This reagent for differential hemolysis has a concentration of about 15% Me-octPCl. […] For hemolysis the content of the tube is gently mixed by shaking. An optically clear lysate is obtained within five minutes. The lysate is stored at 4° C. Stability of the lysate is inspected after 1, and 2 days by visual inspection. […] This reagent for differential hemolysis has a concentration of about 10% COMPCl. […]

erythrocytes [3] = assay: Microscopic evaluation of hemolysis, May-Grünwald staining; format: cell-based
Method: Solution A: Fresh EDTA-stabilized whole blood is diluted with 0.15 molar sodium chloride solution in the ratio 1:10 (50 μL EDTA-blood plus 450 μL sodium chloride solution). Solution B: […] Hemolysate is prepared by mixing solution A and B in equal volumes, e.g., 20 μL solution A plus 20 μL solution B After mixing of the hemolysate a droplet is smeared on a microscope slide, air dried at room temperature and stained with May-Grünwald staining reagent (Merck Cat. No. 1.01424 May-Grünwald's Eosin Methylene Blue Solution). […] Microscopy is performed by oil immersion light microscopy (magnification ×630).

erythrocytes [4] = assay: Microscopic evaluation of hemolysis, Trypane blue staining; format: cell-based; settings: 1 in 10 diluted whole blood, reagent 25%
Method: The integrity of red blood cells can for example be easily assessed by appropriate life stains. In a preferred embodiment according to the present invention trypane blue is used in order to assess the integrity of a red blood cell membrane. […] The membrane integrity of a red blood cell is easily assessed under the microscope after staining a sample with trypane blue. The percentage of disrupted red blood cells is calculated by counting intact red blood cells before and after the treatment, by then dividing the first number by the latter number and by then multiplying this value by 100. Red blood cells that are solubilized are referred to as lyzed red blood cells or as lyzed erythrocytes.
as §1
Solution B: A solution of the hemolysis reagent in 0.15 molar sodium chloride is prepared where the concentration of the hemolysis reagent is twice as high as the desired final concentration in the hemolysate, e.g., to get a final concentration of 25% of 1-Butyl-4-methylpyridinium tetrafluoroborate a solution of 50% ([…] plus 50 mL 0.15 molar sodium chloride in water) is prepared. […]

[5] = in vivo; cited from earlier work
[6] = cited from earlier work
[7] = final concentration 12.5% (weight/volume)
[8] = final concentration 25% (weight/volume), whole blood final dilution 1:20

Compound: CCCCCC[n+]1ccccc1.[Cl-] [1-Hexylpyridiniumchloride]
- clear after (min.) (erythrocytes [1]; [7]): turbid
- clear after (erythrocytes [1]; [8]): 7 min

Compound: CCCCCCCCOC[n+]1cccc(C(N)=O)c1.[Cl-] [3-Carbamoyl-1-octyloxymethyl pyridiniumchloride]
- clear after (min.) (erythrocytes [1]; final concentration 1.5% (weight/volume)): immediately
- clear after (min.) (erythrocytes [1]; final concentration 6.25% (weight/volume)): immediately
- clear after (min.) (erythrocytes [1]; [7]): immediately
- time until optically clear lysate is obtained ([2]; 50 microliter blood into 130 microliter reagent, about 10% COMPCl): five

Compound: CCCC[n+]1ccc(C)cc1.F[B-](F)(F)F [1-Butyl-4-methylpyridinium tetrafluoroborate]
- clear after (min.) (erythrocytes [1]; final concentration 6% (weight/volume)): Turbid
- clear after (erythrocytes [1]; [7]): 40 min
- clear after (erythrocytes [1]; [8]): 20 min
- Light microscopy of hemolyzed whole blood, May-Grünwald staining (erythrocytes [3]; 1 in 10 diluted whole blood, reagent 25%): No erythrocytes or membranes are left, nuclei are still intact
- Light microscopy of hemolyzed whole blood, Trypane blue staining (erythrocytes [4]; 2.5 min incubation time): Only few residual erythrocytes are left
- Light microscopy of hemolyzed whole blood, Trypane blue staining (erythrocytes [4]; 15 min incubation time): No erythrocytes or membranes are left
- time until optically clear lysate is obtained ([2]; 250 microliter blood into 5 milliliter reagent, about 25% BMPBF4): five

Compound: CO[C@H]1C[C@@H]2CC[C@@H](C)[C@@](O)(O2)C(=O)C(=O)N2CCCC[C@H]2C(=O)O[C@H]([C@H](C)C[C@@H]2CC[C@@H](O)[C@H](OC)C2)CC(=O)[C@H](C)/C=C(\C)[C@@H](O)[C@@H](OC)C(=O)[C@H](C)C[C@H](C)/C=C/C=C/C=C/1C [sirolimus, rapamycin]
- therapeutic trough concentration [5]: 5 to 15 µg/L

Compound: COc1c(C)c2c(c(O)c1C/C=C(\C)CCC(=O)OCCN1CCOCC1)C(=O)OC2 [MMF, mycophenolate mofetil]
- therapeutic trough concentration [5]: 1000 to 3500 µg/L

Compound: C=CC[C@@H]1/C=C(\C)C[C@H](C)C[C@H](OC)[C@H]2O[C@@](O)(C(=O)C(=O)N3CCCC[C@H]3C(=O)O[C@H](/C(C)=C/[C@@H]3CC[C@@H](O)[C@H](OC)C3)[C@H](C)[C@@H](O)CC1=O)[C@H](C)C[C@@H]2OC [Tacrolimus, tacrolimus]
- therapeutic trough concentration [5]: 5 to 20 µg/L
- potency relative to cyclosporin in vitro [6]: up to 100 times

Compound: CCCCCCCCOS(=O)(=O)[O-].CCCCn1cc[n+](C)c1 [l-Butyl-3-methyl-imidazoliumoctylsulfate, 1-Butyl-3-methyl-imidazoliumoctylsulfate]
- clear after (min.) (erythrocytes [1]; [8]): immediately

Compound: CCCC[n+]1cccc(C)c1.[Cl-] [1-Butyl-3-methyl pyridiniumchloride, 1-Butyl-3-methylpyridiniumchloride]
- clear after (min.) (erythrocytes [1]; [8]): turbid

Compound: CCCCn1cc[n+](C)c1.F[B-](F)(F)F [1-Butyl-3-methyl-imidazolium tetrafluoroborate]
- clear after (erythrocytes [1]; [8]): 20 min

Compound: CCCCCCCC[n+]1ccccc1.[Cl-] [N-Octylpyridiniumchloride]
- clear after (erythrocytes [1]; [8]): 2 min

Compound: CCCCCCCC[N+]1(C)CCCC1.[Cl-] [1-Methyl-1-octyl pyrrolidiniumchloride]
- clear after (min.) (erythrocytes [1]; final concentration 2.5% (weight/volume)): turbid
- clear after (min.) (erythrocytes [1]; [8]): immediately

Compound: O [water, reference compound]
- Light microscopy of hemolyzed whole blood, May-Grünwald staining (erythrocytes [3]; 1 in 10 diluted whole blood hemolyzed with water): Erythrocyte membranes and nuclei are visible
